Assay results as given in PubChem BioAssay AID330 (DTP/NCI, 2004).
Several values for one entry are separate records, joined by “and”; a condition that tells them apart may be missing. Equal values may be shown once. Toxic doses and inconclusive results are not listed.

System: P388 leukemia ip, CD2F1 mice, survival T/C
Experiment: NCI In Vivo Anticancer Drug Screen. Data for tumor model P388 Leukemia (intraperitoneal) in CD2F1 (CDF1) mice
Conditions: endpoint: median survival time, higher = longer survival
Method in brief: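 Mice carrying the transplanted tumor received test compound or vehicle. Survival was recorded in each group, and the value is the treated-group measurement divided by that of the vehicle-treated control group.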

[1] = dose: 50.0 mg/kg/injection, schedule: Q01DX009 (ip), vehicle: saline
[2] = dose: 100.0 mg/kg/injection, schedule: Q01DX009 (ip), vehicle: saline
[3] = dose: 200.0 mg/kg/injection, schedule: Q01DX009 (ip), vehicle: saline
[4] = dose: 50.0 mg/kg/injection, schedule: Q01DX009 (ip), vehicle: saline with Tween-80
[5] = dose: 100.0 mg/kg/injection, schedule: Q01DX009 (ip), vehicle: saline with Tween-80
[6] = dose: 200.0 mg/kg/injection, schedule: Q01DX009 (ip), vehicle: saline with Tween-80
[7] = dose: 60.0 mg/kg/injection, schedule: Q01DX005 (ip), vehicle: Klucel (hydroxypropylcellulose) (HPC)
[8] = dose: 120.0 mg/kg/injection, schedule: Q01DX005 (ip), vehicle: Klucel (hydroxypropylcellulose) (HPC)
[9] = dose: 240.0 mg/kg/injection, schedule: Q01DX005 (ip), vehicle: Klucel (hydroxypropylcellulose) (HPC)
[10] = dose: 30.0 mg/kg/injection, schedule: Q01DX005 (ip), vehicle: Klucel (hydroxypropylcellulose) (HPC)
[11] = dose: 60.0 mg/kg/injection, schedule: Q01DX005 (ip), vehicle: saline with Tween-80
[12] = dose: 120.0 mg/kg/injection, schedule: Q01DX005 (ip), vehicle: saline with Tween-80
[13] = dose: 240.0 mg/kg/injection, schedule: Q01DX005 (ip), vehicle: saline with Tween-80
[14] = dose: 50.0 mg/kg/injection, schedule: Q01DX005 (ip), vehicle: saline with Tween-80
[15] = dose: 100.0 mg/kg/injection, schedule: Q01DX005 (ip), vehicle: saline with Tween-80
[16] = dose: 6.25 mg/kg/injection, schedule: Q01DX009 (ip), vehicle: saline
[17] = dose: 12.5 mg/kg/injection, schedule: Q01DX009 (ip), vehicle: saline
[18] = dose: 25.0 mg/kg/injection, schedule: Q01DX009 (ip), vehicle: saline
[19] = dose: 25.0 mg/kg/injection, schedule: Q04DX003 (ip), vehicle: saline
[20] = dose: 200.0 mg/kg/injection, schedule: Q01DX005 (ip), vehicle: saline with Tween-80
[21] = dose: 50.0 mg/kg/injection, schedule: Q01DX005 (ip), vehicle: Klucel (hydroxypropylcellulose) (HPC)
[22] = dose: 100.0 mg/kg/injection, schedule: Q01DX005 (ip), vehicle: Klucel (hydroxypropylcellulose) (HPC)
[23] = dose: 200.0 mg/kg/injection, schedule: Q01DX005 (ip), vehicle: Klucel (hydroxypropylcellulose) (HPC)

CN1OC2(CCCCC2)n2c(=O)c3ccccc3c(=O)n2C1c1ccccc1 (configuration not stated)
T/C [1]: 100 % of control | T/C [2]: 100 % of control | T/C [3]: 95 % of control

CCCCOC(=O)CC(O)C(=O)OCCCC (configuration not stated)
T/C [4]: 109 % of control | T/C [5]: 119 % of control | T/C [6]: 114 % of control

CC(=O)Cc1cc(-c2cc(CC(C)=O)on2)no1
T/C (dose: 60.0 mg/kg/injection, schedule: Q01DX005 (ip), vehicle: saline): 103 % of control | T/C (dose: 120.0 mg/kg/injection, schedule: Q01DX005 (ip), vehicle: saline): 99 % of control | T/C (dose: 240.0 mg/kg/injection, schedule: Q01DX005 (ip), vehicle: saline): 100 % of control

C/C=C(\C)C(=O)N/N=C\c1cc(Cl)cc(Cl)c1O
T/C (dose: 12.5 mg/kg/injection, schedule: Q01DX009 (ip), vehicle: olive oil, sesame oil, peanut oil): 106 % of control | T/C (dose: 25.0 mg/kg/injection, schedule: Q01DX009 (ip), vehicle: olive oil, sesame oil, peanut oil): 98 % of control | T/C (dose: 50.0 mg/kg/injection, schedule: Q01DX009 (ip), vehicle: olive oil, sesame oil, peanut oil): 106 % of control | T/C (dose: 100.0 mg/kg/injection, schedule: Q01DX009 (ip), vehicle: olive oil, sesame oil, peanut oil): 102 % of control | T/C (dose: 200.0 mg/kg/injection, schedule: Q01DX009 (ip), vehicle: olive oil, sesame oil, peanut oil): 96 % of control | T/C (dose: 400.0 mg/kg/injection, schedule: Q01DX009 (ip), vehicle: olive oil, sesame oil, peanut oil): 93 % of control

CCO/C=C1\N=C(C(O)(c2ccc(Cl)cc2)c2ccc(Cl)cc2)OC1=O
T/C [7]: 95 % of control | T/C [8]: 92 % of control | T/C [9]: 98 % of control

CCOC(=O)C1=C(C(=O)c2cccc3ccccc23)C(c2cccc([N+](=O)[O-])c2)C(C(=O)c2cccc3ccccc23)=C(C(=O)OCC)N1
T/C (dose: 15.0 mg/kg/injection, schedule: Q01DX005 (ip), vehicle: Klucel (hydroxypropylcellulose) (HPC)): 97 % of control | T/C [10]: 97 % of control | T/C [7]: 99 % of control

CC(NCCO)C(O)c1ccccc1 (configuration not stated)
T/C [2]: 90 % of control | T/C [3]: 98 % of control

CC(C)C1SCC(=O)N1c1nncs1 (configuration not stated)
T/C [11]: 103 % of control | T/C [12]: 112 % of control | T/C [13]: 107 % of control

Nc1[nH]c(=S)[nH]c(=O)c1NS(=O)(=O)c1cccc([N+](=O)[O-])c1
T/C [10]: 103 % of control and 105 % of control | T/C [7]: 100 % of control and 97 % of control | T/C [8]: 98 % of control and 97 % of control | T/C [9]: 99 % of control and 106 % of control

CN(C)c1ccc2nc3ccc(=[N+](C)C)c([N+](=O)[O-])c-3sc2c1
T/C (dose: 15.0 mg/kg/injection, schedule: Q01DX005 (ip), vehicle: saline): 105 % of control | T/C (dose: 30.0 mg/kg/injection, schedule: Q01DX005 (ip), vehicle: saline): 100 % of control | T/C [14]: 116 % of control | T/C [15]: 100 % of control

CCCCC(CC)COP(=O)(CC(CC)CCCC)OCC(CC)CCCC (configuration not stated)
T/C [16]: 109 % of control | T/C [17]: 109 % of control | T/C [18]: 109 % of control | T/C [19]: 100 % of control | T/C (dose: 50.0 mg/kg/injection, schedule: Q04DX003 (ip), vehicle: saline): 100 % of control | T/C (dose: 100.0 mg/kg/injection, schedule: Q04DX003 (ip), vehicle: saline): 113 % of control

O=C(C1CCCCC1)C1CCCCC1CC1CCCCC1 (configuration not stated)
T/C [14]: 102 % of control | T/C [15]: 107 % of control | T/C [20]: 107 % of control

CC(NC(=O)/C=C/c1ccco1)C(=O)NC(Cc1ccccc1)C(N)=O (configuration not stated)
T/C [21]: 104 % of control | T/C [22]: 106 % of control | T/C [23]: 104 % of control

COc1ccc(Nc2c3sc4cc(OC)ccc4nc-3c3ccccc3c2=O)cc1
T/C [14]: 94 % of control | T/C [15]: 92 % of control | T/C [20]: 94 % of control

C[N+](C)(C)CCO
T/C [17]: 105 % of control | T/C [18]: 98 % of control | T/C [1]: 96 % of control

CCCCN1C(=O)C(CC(=O)OCC)SC1=S (configuration not stated)
T/C [7]: 95 % of control | T/C [8]: 97 % of control | T/C [9]: 97 % of control

COc1cc2c(oc(=O)c3cc(C)cc(OC)c32)c2c(C3OC(C)C(O)C(C)(O)C3O)ccc(O)c12 (configuration not stated)
T/C (dose: 1.56 mg/kg/injection, schedule: Q01DX005 (ip), vehicle: DMSO): 101 % of control | T/C (dose: 3.12 mg/kg/injection, schedule: Q01DX005 (ip), vehicle: DMSO): 105 % of control and 109 % of control | T/C (dose: 6.25 mg/kg/injection, schedule: Q01DX005 (ip), vehicle: DMSO): 114 % of control | T/C (dose: 12.5 mg/kg/injection, schedule: Q01DX005 (ip), vehicle: DMSO): 123 % of control

NC(=O)c1nnn2c1nc(N)c1ccccc12
T/C [4]: 90 % of control | T/C [5]: 89 % of control | T/C [6]: 91 % of control

CCC(C)P(=O)(N1CC1)N1CC1 (configuration not stated)
T/C [16]: 109 % of control | T/C (dose: 6.25 mg/kg/injection, schedule: Q04DX003 (ip), vehicle: saline): 113 % of control | T/C [18]: 154 % of control | T/C [19]: 190 % of control

O=C1N/C(=N/O)CC(NO)N1 (configuration not stated)
T/C (dose: 100.0 mg/kg/injection, schedule: Q04DX002 (ip), vehicle: Klucel (hydroxypropylcellulose) (HPC)): 97 % of control | T/C (dose: 200.0 mg/kg/injection, schedule: Q04DX002 (ip), vehicle: Klucel (hydroxypropylcellulose) (HPC)): 100 % of control | T/C (dose: 400.0 mg/kg/injection, schedule: Q04DX002 (ip), vehicle: Klucel (hydroxypropylcellulose) (HPC)): 102 % of control

CC(=O)Nc1cc2ccccc2c(Br)n1
T/C (dose: 100.0 mg/kg/injection, schedule: Q01DX001 (ip), vehicle: saline with Tween-80): 90 % of control | T/C (dose: 200.0 mg/kg/injection, schedule: Q01DX001 (ip), vehicle: saline with Tween-80): 97 % of control | T/C (dose: 400.0 mg/kg/injection, schedule: Q01DX001 (ip), vehicle: saline with Tween-80): 97 % of control

CCCCCCC(=O)CC(SCC)c1ccc(Cl)c(Cl)c1 (configuration not stated)
T/C [4]: 100 % of control | T/C [5]: 97 % of control | T/C [6]: 106 % of control

O=C(O)C1C2C=CC(C2)C1c1c2ccc(=O)c(O)c-2oc2c(O)c(O)ccc12 (configuration not stated)
T/C [11]: 102 % of control | T/C [12]: 101 % of control | T/C [13]: 111 % of control

CC1C(=O)C(C)C(c2ccc([N+](=O)[O-])cc2)OC1c1ccccc1 (configuration not stated)
T/C (dose: 50.0 mg/kg/injection, schedule: Q01DX001 (ip), vehicle: suspension in saline): 96 % of control | T/C (dose: 100.0 mg/kg/injection, schedule: Q01DX001 (ip), vehicle: suspension in saline): 100 % of control | T/C (dose: 200.0 mg/kg/injection, schedule: Q01DX001 (ip), vehicle: suspension in saline): 102 % of control

C=CCn1c(NCCN(CC)CC)nc2ccc(Cl)cc2c1=O
T/C (dose: 12.5 mg/kg/injection, schedule: Q01DX009 (ip), vehicle: saline sonified): 100 % of control | T/C (dose: 25.0 mg/kg/injection, schedule: Q01DX009 (ip), vehicle: saline sonified): 104 % of control | T/C (dose: 50.0 mg/kg/injection, schedule: Q01DX009 (ip), vehicle: saline sonified): 104 % of control

CCOS(=O)(=O)CS(C)(=O)=O
T/C (dose: 25.0 mg/kg/injection, schedule: Q01DX005 (ip), vehicle: saline): 118 % of control | T/C (dose: 50.0 mg/kg/injection, schedule: Q01DX005 (ip), vehicle: saline): 118 % of control | T/C (dose: 100.0 mg/kg/injection, schedule: Q01DX005 (ip), vehicle: saline): 160 % of control and 170 % of control | T/C (dose: 150.0 mg/kg/injection, schedule: Q01DX005 (ip), vehicle: saline): 104 % of control

C/C(=N\N)c1nc2ccccc2[nH]1
T/C (dose: 15.0 mg/kg/injection, schedule: Q01DX005 (ip), vehicle: saline with Tween-80): 101 % of control | T/C (dose: 30.0 mg/kg/injection, schedule: Q01DX005 (ip), vehicle: saline with Tween-80): 101 % of control | T/C [7]: 100 % of control | T/C [11]: 108 % of control

CCC1CCCCN1Cc1ccccc1 (configuration not stated)
T/C [7]: 108 % of control | T/C [8]: 110 % of control

CCCCc1ccc(NC(=O)On2c3ccccc3c3ccccc32)cc1
T/C [21]: 96 % of control | T/C [22]: 94 % of control | T/C [23]: 95 % of control
